Assay results taken from US10087185B2 (Janssen Pharmaceutica NV, priority 2016, dated 2018).

Biological target: TARP γ8 dependent AMPA receptor (GRIA1o-CACNG8 fusion construct) (Homo sapiens (Human), UniProt P42261+Q8WXS5)
Assay: Calcium flux assay (FLIPR), inhibition of glutamate response of GluA1o-γ8 channel
Format: cell-based
Conditions: HEK293 cells stably expressing GRIA1o-CACNG8 fusion; calcium flux after 15 μM glutamate; negative log of the IC50 in molar
Description: This assay was used to test compounds for their ability to inhibit TARP γ8 dependent AMPA receptor activity. The AMPA receptor is a non-selective cation channel activated by glutamate. […] But, this desensitization is incomplete, and a substantial steady-state current remains in the sustained presence of glutamate (Cho et al. (2007). “Two families of TARP isoforms that have distinct effects on the kinetic properties of AMPA receptors and synaptic currents.” Neuron 55(6): 890-904).
An in vitro assay was used to determine the potency of test compounds as inhibitors of the glutamate response of the channel formed by GluA10-γ8. To ensure a 1:1 stoichiometry of GluA1o and γ8 subunits in the expressed channel, a fusion of the cDNAs for GRIA1o and CACNG8 was used. Following Shi et al (2009) “The stoichiometry of AMPA receptors and TARPs varies by neuronal cell type.” Neuron 62(5): 633-640), the C-terminus of the cDNA for GRIA1o was fused to the N-terminus of the cDNA for γ8. The linker sequence was […]. Channels expressed with this construct appear to have similar properties to channels formed by co-expression of GRIA1o with an excess of CACNG8 (Shi et al. 2009). A clonal cell line in HEK293 cells stably expressing this construct, with a geneticin selection marker, was generated for use in this assay.
Cell expressing the GRIA1o-CACNG8 fusion construct were grown in a monolayer in 96- or 384-well microtiter plates. They were washed with assay buffer (135 mM NaCl, 4 mM KCl, 3 mM CaCl2, 1 mM MgCl2, 5 mM glucose, 10 mM HEPES, pH 7.4, 300 mOs) using a Biotek EL405 plate washer. The cells were then loaded with a calcium-sensitive dye (Calcium-5 or Calcium-6, Molecular Devices) and the test compounds at a range of concentrations. Calcium flux following the addition of 15 μM glutamate was monitored using a Molecular Devices FLIPR Tetra.
The fluorescence in each well was normalized to the fluorescence of negative and positive control wells. The negative control wells had no added compounds, and the positive control wells had been incubated with 10 μM CP465022 (a non-subtype-selective AMPA receptor antagonist) (Lazzaro et al. (2002). “Functional characterization of CP-465,022, a selective, noncompetitive AMPA receptor antagonist.” Neuropharmacology 42(2): 143-153). The responses to glutamate as functions of the test compound concentrations were fitted to a four-parameter logistic function. The fitted parameter corresponding to the midpoint was taken to be the potency of inhibition of the compound. The data in Table 4 below illustrates the observed potency for the compounds described herein. pIC50 refers to the negative log of the IC50 in molar.

TARP γ8 dependent AMPA receptor (GRIA1o-CACNG8 fusion construct), sequence (P42261 other isoform, or with tags, fused parts or gaps): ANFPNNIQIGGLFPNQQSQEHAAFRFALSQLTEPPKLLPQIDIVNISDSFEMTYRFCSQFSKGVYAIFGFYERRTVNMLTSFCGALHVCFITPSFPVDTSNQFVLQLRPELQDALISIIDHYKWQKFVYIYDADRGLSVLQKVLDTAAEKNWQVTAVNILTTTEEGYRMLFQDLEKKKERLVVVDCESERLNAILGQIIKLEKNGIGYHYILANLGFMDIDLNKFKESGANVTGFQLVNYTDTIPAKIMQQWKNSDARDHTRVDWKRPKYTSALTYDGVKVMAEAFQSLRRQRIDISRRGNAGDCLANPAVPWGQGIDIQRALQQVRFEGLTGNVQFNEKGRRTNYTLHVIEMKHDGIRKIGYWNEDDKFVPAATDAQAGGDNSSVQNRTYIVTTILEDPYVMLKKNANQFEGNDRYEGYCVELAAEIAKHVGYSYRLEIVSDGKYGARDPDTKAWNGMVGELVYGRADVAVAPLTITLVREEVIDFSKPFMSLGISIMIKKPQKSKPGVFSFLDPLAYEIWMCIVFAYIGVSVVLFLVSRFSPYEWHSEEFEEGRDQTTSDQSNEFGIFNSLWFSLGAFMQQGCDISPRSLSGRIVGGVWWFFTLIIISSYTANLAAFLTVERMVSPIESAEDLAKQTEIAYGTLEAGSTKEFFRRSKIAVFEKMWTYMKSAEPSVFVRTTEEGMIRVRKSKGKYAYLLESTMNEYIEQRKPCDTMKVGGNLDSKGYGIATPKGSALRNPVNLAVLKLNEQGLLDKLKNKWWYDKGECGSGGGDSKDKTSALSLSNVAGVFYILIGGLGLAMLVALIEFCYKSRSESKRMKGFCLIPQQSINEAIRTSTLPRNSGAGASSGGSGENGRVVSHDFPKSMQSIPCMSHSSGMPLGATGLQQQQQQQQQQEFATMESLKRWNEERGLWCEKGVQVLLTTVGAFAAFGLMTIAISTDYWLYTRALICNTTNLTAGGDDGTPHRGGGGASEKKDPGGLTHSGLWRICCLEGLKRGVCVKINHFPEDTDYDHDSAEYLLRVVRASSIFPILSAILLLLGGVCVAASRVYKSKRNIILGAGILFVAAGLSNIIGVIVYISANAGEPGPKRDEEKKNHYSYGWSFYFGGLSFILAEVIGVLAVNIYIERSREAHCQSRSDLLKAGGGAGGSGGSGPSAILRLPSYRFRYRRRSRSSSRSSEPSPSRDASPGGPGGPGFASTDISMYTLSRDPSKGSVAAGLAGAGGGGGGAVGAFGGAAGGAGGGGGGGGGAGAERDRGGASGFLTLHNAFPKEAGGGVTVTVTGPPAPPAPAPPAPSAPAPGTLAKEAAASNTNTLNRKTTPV

Which IC50 does the source give for `FC(F)(F)c1cc2ccc(C(F)(F)F)c(-c3cc(Cl)c4[nH]ncc4c3)n2n1` [Example 63, 5-(2,6-Bis(trifluoromethyl)pyrazolo[1,5-a]pyridin-7-yl)-7-chloro-1H-indazole] here?
Its IC50 is 0.0158 nM.

`Cc1cc(-c2c(C(F)(F)F)ccc3cc(C(F)(F)F)nn23)cc2cn[nH]c12` [Example 64, 5-(2,6-Bis(trifluoromethyl)pyrazolo[1,5-a]pyridin-7-yl)-7-methyl-1H-indazole] was tested. Which IC50 did it give?
The IC50 was 0.0158 nM.

How did the IC50 turn out when `Cc1cc(-c2c(C(F)(F)F)ccc3cc(C(F)(F)F)nn23)cc2c1NC(=O)C2` [Example 65, 5-(2,6-Bis(trifluoromethyl)pyrazolo[1,5-a]pyridin-7-yl)-7-methylindolin-2-one] was run?
The IC50 was 0.0158 nM.

For `O=C1Cc2cc(-c3c(C(F)(F)F)ccc4cc(C(F)(F)F)nn34)cc(Cl)c2N1` [Example 66, 5-(2,6-Bis(trifluoromethyl)pyrazolo[1,5-a]pyridin-7-yl)-7-chloroindolin-2-one], which IC50 is on record?
Its IC50 is 0.0126 nM.

Which IC50 does the source give for `Cc1cc(-c2c(C(F)(F)F)ccc3cc(C4CC4)nn23)cc2c1NC(=O)C2` [Example 67, 5-(2-Cyclopropyl-6-(trifluoromethyl)pyrazolo[1,5-a]pyridin-7-yl)-7-methylindolin-2-one] here?
Its IC50 is 0.0501 nM.

How did the IC50 turn out when `O=C1Cc2cc(-c3c(C(F)(F)F)ccc4cc(C5CC5)nn34)cc(Cl)c2N1` [Example 68, 5-(2-Cyclopropyl-6-(trifluoromethyl)pyrazolo[1,5-a]pyridin-7-yl)-7-chloroindolin-2-one] was run?
The IC50 was 0.02 nM.

Which IC50 does the source give for `Cc1cc(-c2c(C(F)(F)F)ccc3cc(C4CC4)nn23)cc2cn[nH]c12` [Example 69, 5-(2-Cyclopropyl-6-(trifluoromethyl)pyrazolo[1,5-a]pyridin-7-yl)-7-methyl-1H-indazole] here?
Its IC50 is 0.0501 nM.

`FC(F)(F)c1ccc2cc(C3CC3)nn2c1-c1cc(Cl)c2[nH]ncc2c1` [Example 70, 7-Chloro-5-(2-cyclopropyl-6-(trifluoromethyl)pyrazolo[1,5-a]pyridin-7-yl)-1H-indazole] was tested. Which IC50 did it give?
Its IC50 is 0.0631 nM.

`Cc1cc(-c2c(C(F)(F)F)ccc3cc(C(C)C)nn23)cc2c1NC(=O)C2` [Example 71, 5-(2-Isopropyl-6-(trifluoromethyl)pyrazolo[1,5-a]pyridin-7-yl)-7-methylindolin-2-one] was tested. Which IC50 did it give?
Its IC50 is 0.0158 nM.

With `CC(C)c1cc2ccc(C(F)(F)F)c(-c3cc(Cl)c4c(c3)CC(=O)N4)n2n1` [Example 72, 5-(2-Isopropyl-6-(trifluoromethyl)pyrazolo[1,5-a]pyridin-7-yl)-7-chloroindolin-2-one] as the compound, how does the IC50 read?
The IC50 was 0.0126 nM.

For `CC(C)c1cc2ccc(C(F)(F)F)c(-c3cc(Cl)c4[nH]ncc4c3)n2n1` [Example 73, 7-Chloro-5-(2-isopropyl-6-(trifluoromethyl)pyrazolo[1,5-a]pyridin-7-yl)-1H-indazole], which IC50 is on record?
Its IC50 is 0.01 nM.

For `Cc1cc(-c2c(C(F)(F)F)ccc3cc(C(C)C)nn23)cc2cn[nH]c12` [Example 74, 5-(2-Isopropyl-6-(trifluoromethyl)pyrazolo[1,5-a]pyridin-7-yl)-7-methyl-1H-indazole], which IC50 is on record?
The IC50 was 0.0794 nM.

How did the IC50 turn out when `Cc1cc(C(F)(F)F)c(-c2cc(Cl)c3c(c2)CC(=O)N3)n2nc(C3CC3)nc12` [Example 75, 7-Chloro-5-(2-cyclopropyl-8-methyl-6-(trifluoromethyl)-[1,2,4]triazolo[1,5-a]pyridin-5-yl)indolin-2-one] was run?
Its IC50 is 0.126 nM.

How did the IC50 turn out when `Cc1cc(-c2c(C(F)(F)F)cc(C)c3nc(C4CC4)nn23)cc2cn[nH]c12` [Example 76, 2-Cyclopropyl-8-methyl-5-(7-methyl-1H-indazol-5-yl)-6-(trifluoromethyl)-[1,2,4]triazolo[1,5-a]pyridine] was run?
Its IC50 is 0.158 nM.

Which IC50 does the source give for `Cc1cc(C(F)F)c(-c2cc(Cl)c3[nH]ncc3c2)n2nc(C(F)(F)F)nc12` [Example 77, 5-(7-Chloro-1H-indazol-5-yl)-6-(difluoromethyl)-8-methyl-2-(trifluoromethyl)-[1,2,4]triazolo[1,5-a]pyridine] here?
The IC50 was 0.251 nM.

With `Cc1cc(C(F)(F)F)c(-c2cc(Cl)c3[nH]ncc3c2)n2nc(C(F)F)nc12` [Example 78, 5-(7-Chloro-1H-indazol-5-yl)-2-(difluoromethyl)-8-methyl-6-(trifluoromethyl)-[1,2,4]triazolo[1,5-a]pyridine] as the compound, how does the IC50 read?
Its IC50 is 0.126 nM.

Which IC50 does the source give for `Cc1cc(-c2c(C(F)(F)F)cc(C)c3nc(C(F)F)nn23)cc2cn[nH]c12` [Example 79, 2-(Difluoromethyl)-8-methyl-5-(7-methyl-1H-indazol-5-yl)-6-(trifluoromethyl)-[1,2,4]triazolo[1,5-a]pyridine] here?
Its IC50 is 0.398 nM.

How did the IC50 turn out when `CCc1cc(C(F)(F)F)c(-c2cc(Cl)c3[nH]ncc3c2)n2nc(C3CC3)nc12` [Example 80, 5-(7-Chloro-1H-indazol-5-yl)-2-cyclopropyl-8-ethyl-6-(trifluoromethyl)-[1,2,4]triazolo[1,5-a]pyridine] was run?
The IC50 was 0.158 nM.

For `CCc1cc(C(F)(F)F)c(-c2cc(C)c3[nH]ncc3c2)n2nc(C3CC3)nc12` [Example 81, 2-Cyclopropyl-8-ethyl-5-(7-methyl-1H-indazol-5-yl)-6-(trifluoromethyl)-[1,2,4]triazolo[1,5-a]pyridine], which IC50 is on record?
The IC50 was 0.501 nM.

With `CCc1cc(C(F)(F)F)c(-c2cc(C)c3c(c2)CC(=O)N3)n2nc(C3CC3)nc12` [Example 82, 5-(2-Cyclopropyl-8-ethyl-6-(trifluoromethyl)-[1,2,4]triazolo[1,5-a]pyridin-5-yl)-7-methylindolin-2-one] as the compound, how does the IC50 read?
Its IC50 is 0.316 nM.

Which IC50 does the source give for `CCCc1nc2c(C)cc(C(F)(F)F)c(-c3cc(Cl)c4[nH]ncc4c3)n2n1` [Example 83, 5-(7-Chloro-1H-indazol-5-yl)-8-methyl-2-propyl-6-(trifluoromethyl)-[1,2,4]triazolo[1,5-a]pyridine] here?
Its IC50 is 0.2 nM.

Which IC50 does the source give for `CCCc1nc2c(C)cc(C(F)(F)F)c(-c3cc(C)c4[nH]ncc4c3)n2n1` [Example 84, 8-Methyl-5-(7-methyl-1H-indazol-5-yl)-2-propyl-6-(trifluoromethyl)-[1,2,4]triazolo[1,5-a]pyridine] here?
Its IC50 is 1 nM.

Which IC50 does the source give for `CCCc1nc2c(C)cc(C(F)(F)F)c(-c3cc(C)c4c(c3)CC(=O)N4)n2n1` [Example 85, 7-Methyl-5-(8-methyl-2-propyl-6-(trifluoromethyl)-[1,2,4]triazolo[1,5-a]pyridin-5-yl)indolin-2-one] here?
The IC50 was 0.316 nM.

Which pIC50 does the source give for `Cc1cc(-c2c(C(F)(F)F)cc(C)c3nc(C(F)F)nn23)cc2cn[nH]c12` [Example 86, 2-(Difluoromethyl)-8-methyl-5-(7-methyl-1H-indazol-5-yl)-6-(trifluoromethyl)-[1,2,4]triazolo[1,5-a]pyridine] here?
The pIC50 was 9.4.

With `CCc1cc(C(F)(F)F)c(-c2cc(Cl)c3[nH]ncc3c2)n2nc(C(F)F)nc12` [Example 87, 5-(7-Chloro-1H-indazol-5-yl)-2-(difluoromethyl)-8-ethyl-6-(trifluoromethyl)-[1,2,4]triazolo[1,5-a]pyridine] as the compound, how does the IC50 read?
The IC50 was 0.398 nM.

How did the IC50 turn out when `CCc1cc(C(F)(F)F)c(-c2cc(C)c3[nH]ncc3c2)n2nc(C(F)F)nc12` [Example 88, 2-(Difluoromethyl)-8-ethyl-5-(7-methyl-1H-indazol-5-yl)-6-(trifluoromethyl)-[1,2,4]triazolo[1,5-a]pyridine] was run?
Its IC50 is 1.58 nM.

Which IC50 does the source give for `CCc1nc2c(CC)cc(C(F)(F)F)c(-c3cc(Cl)c4[nH]ncc4c3)n2n1` [Example 89, 5-(7-Chloro-1H-indazol-5-yl)-2,8-diethyl-6-(trifluoromethyl)-[1,2,4]triazolo[1,5-a]pyridine] here?
The IC50 was 0.794 nM.
